IC50 data for 14 molecules are collected here from patent publication US20220073536A1 (Rigel Pharmaceuticals, Inc., priority 2003, published 2022).

Assay [1] deals with cultured human mast cells (CHMC). Description: CHMC low cell density IgE activation: tryptase assay. It is filed as cell-based. The note with it: low cell density CHMC, IgE activation, tryptase. An outline of the steps:
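Low-density CHMC, 1000-1500 cells/well in MT; 1 hr 37 °C; anti-IgE challenge 30 min 37 °C; supernatant tryptase via fluorogenic substrate, 30 min RT.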

Assay [2] has the same test system. The experiment in a line: CHMC low cell density ionomycin activation: tryptase assay. The class given is cell-based. The note with it: low cell density CHMC, tryptase, 3 pt, read-out: LD Tryptase, CHMC, Iono, 3 pt.
Setting [3] is: Homo sapiens, Mast cell, 3 pt, read-out: LD Tryptase, CHMC, IgE, 3 pt.
The mark [4] stands for this setting: 3 pt, read-out: LD Tryptase, CHMC, IgE, 3 pt.
Where [5] appears, read: Homo sapiens, Mast cell, 8 pt, read-out: LD Tryptase, CHMC, IgE, 8 pt.

Molecules are shown by their SMILES.

Consider `CC(=O)N1CCN(c2ccc(Nc3ncc(F)c(N[C@H]4CCN(Cc5ccccc5)C4)n3)cc2)CC1` [Compound 1181, (S)-N2-[4-(4-Acetylpiperazino)phenyl]-N4-(1-benzylpyrrolidin-3-yl)-5-fluoro-2,4-pyrimidinediamine], for which the IC50 in assay [1] (setting [3]) is less than 10 µM; in assay [2] (Homo sapiens, Mast cell), more than 10 µM.

With `CN1CCN(c2ccc(Nc3ncc(F)c(N[C@H]4CCN(Cc5ccccc5)C4)n3)cc2)CC1` [Compound 1182], the IC50 in assay [1] (setting [3]) is more than 10 µM; in assay [2] (Homo sapiens, Mast cell) it was more than 10 µM.

With `CCOC(=O)N1CCN(c2ccc(Nc3ncc(F)c(N[C@H]4CCN(Cc5ccccc5)C4)n3)cc2)CC1` [Compound 1183, (S)-N4-(1-Benzylpyrrolidin-3-yl)-N2-[4-(4-ethoxycarbonylpiperazino)phenyl]-5-fluoro-2,4-pyrimidinediamine], the IC50 is less than 10 µM in assay [1] (setting [3]) and more than 10 µM in assay [2] (Homo sapiens, Mast cell).

For `Fc1cnc(Nc2cccc(N3CCOCC3)c2)nc1N[C@H]1CCN(Cc2ccccc2)C1` [Compound 1184], the IC50 was less than 10 µM in assay [1] (setting [3]) and more than 10 µM in assay [2] (Homo sapiens, Mast cell).

Turning to `CC(=O)N1CCN(c2cccc(Nc3ncc(F)c(N[C@H]4CCN(Cc5ccccc5)C4)n3)c2)CC1` [Compound 1185, (S)-N2-[3-(4-Acetylpiperazino)phenyl]-N4-(benzylpyrrolidin-3-yl)-5-fluoro-2,4-pyrimidinediamine], the IC50 is less than 10 µM in assay [1] (setting [4]) and more than 10 µM in assay [2].

Regarding `CN1CCN(c2cccc(Nc3ncc(F)c(N[C@H]4CCN(Cc5ccccc5)C4)n3)c2)CC1` [Compound 1186], the IC50 was less than 10 µM in assay [1] (setting [3]) and more than 10 µM in assay [2] (Homo sapiens, Mast cell).

As to `CCOC(=O)N1CCN(c2cccc(Nc3ncc(F)c(N[C@H]4CCN(Cc5ccccc5)C4)n3)c2)CC1` [Compound 1187, (S)-N4-(1-Benzylpyrrolidin-3-yl)-N2-[3-(4-ethoxycarbonylpiperazino)phenyl]-5-fluoro-2,4-pyrimidinediamine], the IC50 is less than 10 µM in assay [1] (setting [3]) and more than 10 µM in assay [2] (Homo sapiens, Mast cell).

With `CC1(C)Oc2ccc(Nc3nc(Nc4cccc(-c5ncco5)c4)ncc3F)cc2NC1=O` [Compound 1281], the IC50 in assay [1] (setting [3]) is less than 10 µM; in assay [1] (setting [5]), less than 10 µM; in assay [2] (Homo sapiens, Mast cell) it was more than 10 µM.

For `C[C@@H]1Oc2ccc(Nc3nc(Nc4cccc(-c5ncco5)c4)ncc3F)cc2NC1=O` [Compound 1282], the IC50 is less than 10 µM in assay [1] (setting [3]); less than 10 µM in assay [1] (setting [5]); more than 10 µM in assay [2] (Homo sapiens, Mast cell).

Consider `C[C@H]1Oc2ccc(Nc3nc(Nc4cccc(-c5ncco5)c4)ncc3F)cc2NC1=O` [Compound 1283], for which the IC50 in assay [1] (setting [3]) is less than 10 µM; in assay [1] (setting [5]), less than 10 µM; in assay [2] (Homo sapiens, Mast cell), more than 10 µM.

Take `O=C1Nc2cc(Nc3nc(Nc4cccc(-c5ncco5)c4)ncc3F)ccc2OC1(F)F` [Compound 1284]: the IC50 was less than 10 µM in assay [1] (setting [3]); less than 10 µM in assay [1] (setting [5]); more than 10 µM in assay [2] (Homo sapiens, Mast cell).

For the molecule `NC1CCOc2ccc(Nc3nc(Nc4cccc(-c5ncco5)c4)ncc3F)cc21` (stereo not shown) [Compound 1285], the IC50 in assay [1] (setting [3]) is less than 10 µM; in assay [1] (setting [5]) it was less than 10 µM; in assay [2] (Homo sapiens, Mast cell) it was more than 10 µM.

`CC(C)(C)OC(=O)NC1CCOc2ccc(Nc3nc(Nc4cccc(-c5cnco5)c4)ncc3F)cc21` (stereo not shown) [Compound 1287, N4-(4-N-tert-Butoxycarbonylamino-3,4-dihydro-2H-1-benzopyran-6-yl)-5-fluoro-N2-[3-(oxazol-5-yl)phenyl]-2,4-pyrimidinediamine]: the IC50 in assay [1] (setting [4]) is less than 10 µM; in assay [2], more than 10 µM.

As to `CC(C)(C)OC(=O)NC1CCOc2ccc(Nc3nc(Nc4ccc(-c5cnco5)cc4)ncc3F)cc21` (stereo not shown) [Compound 1288, N4-(4-N-tert-Butoxycarbonylamino-3,4-dihydro-2H-1-benzopyran-6-yl)-5-fluoro-N2-[4-(oxazol-5-yl)phenyl]-2,4-pyrimidinediamine], the IC50 was less than 10 µM in assay [1] (setting [4]); less than 10 µM in assay [1] (8 pt, read-out: LD Tryptase, CHMC, IgE, 8 pt); less than 10 µM in assay [2].
